Reference: patent US20030050283A1, “Composition for the treatment and/or prevention of macular degeneration, method for its manufacture, and its use for treating the eye” (priority 2001, published 2003)
Where two headings read alike, the source gives them in different places.

Tests used:
[1] = target: T1, solubilized cytochrome c oxidase (COX) (Rattus norvegicus, UniProt P00406+P05503+P05505); assay: Activity of solubilized cytochrome c oxidase by oxygen consumption (Clarke electrode); assay type: biochemical; conditions: for IC50: read-out: IC50 (μM) in relation to COX
T1 construct: Cytochrome c oxidase was purified from rat liver mitochondria of female Wistar rats; from tissue; host or cells: rat liver mitochondria (female Wistar rats)
Experimental: Cytochrome c oxidase was purified from rat liver mitochondria of female Wistar rats as described by Frei et al. (Frei, B., Winterhalter, K. H., and Richter, C. (1985) J. Biol. Chem. 260, 7394-7401). The homogenization medium contained 210 mM mannitol, 70 mM saccharose, 10 mM tris-HCl (pH 7.4), 0.1 mM EDTA, and 0.5 mg/mL BSA. The heart mitochondria were purified using a similar method, a polytron homogenizer being used. The cytochrome c oxidase was purified according to the method described by Adez and Cascarano (Adez, I. Z., and Cascarano, J. (1977) J. Bioenerg. Biomemb. 9, 237-253). Cytochrome c oxidase solubilized using Triton X-100 was reconstituted in variously composed phospholipid vesicles of differing dimensions, a modified cholate dialysis method being used. (Niggli, V., Siegel, E., and Carafoli, E. (1982) J. Biol. Chem. 257, 2350-2356). 1 mL of a phospholipid suspension (10 mg/mL in 50 mM KCl, 10 mM HEPES-KOH (pH 7.0), 0.1 mM K^+-EDTA; buffer A) was solubilized in 0.2 mL of a 400 mM cholate solution. The purified cytochrome c oxidase (40 μg) was added to 0.4 mL of the cholate-phospholipid mixture. After an hour on ice, the sample was put into dialysis tubes and dialyzed in the cold against 1 L of buffer A (24 hours), three buffer replacements being performed. Cytochrome c oxidase from Paracoccus denitrificans was graciously provided by Dr. Bernd Ludwig, Biology Center of the University of Frankfurt am Main, Germany.
The cytochrome c oxidase activity was determined by establishing the oxygen consumption. For this purpose, a Clarke electrode was used at 25° C. (Yellow Spring Instruments, Yellow Spring, Ohio), the measurement being performed under continuous stirring. Solubilized cytochrome c oxidase was suspended in 40 mM K^+-phosphate, 0.005 mM EDTA (pH 7.0), 0.7% Tween 20 containing 0.02 mM cytochrome c as a substrate and a mixture of ascorbate und tetramethyl-p-phenylenediamine (TMPD) (10 mM/1 mM). Reconstituted cytochrome c oxidase was measured with ascorbate/TPMD (10 mM/0.2 mM) in a medium containing 100 mM KCl, 0.01 M HEPES-KOH (pH 7.0) und 0.1 mM EDTA.
The radiation with light was performed using a 70 watt lamp which was attached at 10 cm height over the electrode. The oxidation of lipids using peroxynitrite was achieved by suspending 20 mg DPG in 1 mL of 40 mM K^+-phosphate and 0.05 mM EDTA (pH 7.0) and mixing with 0.94 μmol peroxynitrite (original solution 94 mM in 0.1 N NaOH). Malondialdehyde was measured as an index for the lipid oxidation as already described (Klein, S. D., Walt, H., and Richter, C. (1997) Arch. Biochem. Biophys., 348, 313-319).
The activity of the COX could be easily measured by registering the oxygen consumption of the enzyme in the presence of ascorbate and TPMD (tetramethyl-p-phenylene diamine) as an electron source to reduce cytochrome c.
The experiment was performed in darkness (line a) and/or under the incidence of light (line b). 5 μg of catalase from beef liver with 500 μM of H2O2 was added at the positions marked with arrows. […] Two separate measurements are illustrated (lines a and b). At the positions marked by dashed arrows, 300 μg/mL of cardiolipin was added at t=210 seconds and t=950 seconds. At the position of the solid arrow, 5 μg of catalase from beef liver with 500 μM of H2O2 was added.
The oxygen consumption of solubilized COX (2 μg/mL) was measured in the presence of various substances using a Clarke electrode (see materials and methods). […] TPP^+=tetraphenyl phosphonium ion; MPP^+=methylphenyl pyridinium ion.
The oxygen consumption of solubilized COX (2 μg/mL) was measured in the presence of various substances using a Clarke electrode (see materials and methods).

COX = target: T2, COX (Rattus norvegicus, UniProt P00406+P05503+P05505); assay: Binding of [3H]-A2E to COX by co-precipitation; conditions: 20 min
T2 construct: Cytochrome c oxidase was purified from rat liver mitochondria of female Wistar rats; from tissue; host or cells: rat liver mitochondria (female Wistar rats)
Experimental: (§1) The quantity of protein used in each case was approximately 50 pmol. After 20 minutes of incubation in the darkness or under radiation using light, 10% (final concentration) of trichloroacetic acid was added, the precipitate was collected on Millipore filters, and the dissolved filter was examined for radioactivity.
To investigate the hypothesis of whether a molecular interaction occurs between COX and A2E, an acid precipitation of COX was performed after the addition of A2E and radiation with light, and/or after A2E exposure in darkness (see Table IV).
(§2) [^3H]-A2E was added to solubilized COX or other proteins. After 20 minutes of incubation in darkness (setup was wrapped in aluminum foil) or under exposure to light, 10% trichloroacetic acid (final concentration) was added, the precipitate was collected on Millipore filters, and the filters, which were dissolved in solvent, were subsequently examined for radioactivity. CL=cardiolipin (diphosphatidylglycerol, DPC); Cyt. c=cytochrome c; BSA=bovine serum albumin.

BSA = BSA (Bos taurus, UniProt P02769); assay: Binding of [3H]-A2E to BSA by co-precipitation; set-up: species or system bovine; conditions: 20 min
Experimental: as §1, §2

Myoglobin = target: T3, Myoglobin (Homo sapiens, UniProt P02144); assay: Binding of [3H]-A2E to myoglobin by co-precipitation; conditions: 20 min
T3 sequence (P02144 1-154): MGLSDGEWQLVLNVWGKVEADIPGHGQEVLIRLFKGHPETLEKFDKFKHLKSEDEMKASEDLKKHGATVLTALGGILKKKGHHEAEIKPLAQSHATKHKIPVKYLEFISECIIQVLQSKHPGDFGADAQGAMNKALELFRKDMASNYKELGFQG
Experimental: as §1, §2

COX from rat hearts = target: T4, COX from rat hearts (Rattus norvegicus, UniProt P00406+P05503+P05505); assay: Reconstituted COX from rat hearts, sensitivity to A2E; assay type: biochemical
T4 construct: The heart mitochondria were purified using a similar method, a polytron homogenizer being used; from tissue; host or cells: rat heart mitochondria
Experimental: (§3) Cytochrome c oxidase was purified from rat liver mitochondria of female Wistar rats as described by Frei et al. (Frei, B., Winterhalter, K. H., and Richter, C. (1985) J. Biol. Chem. 260, 7394-7401). The homogenization medium contained 210 mM mannitol, 70 mM saccharose, 10 mM tris-HCl (pH 7.4), 0.1 mM EDTA, and 0.5 mg/mL BSA. The heart mitochondria were purified using a similar method, a polytron homogenizer being used. The cytochrome c oxidase was purified according to the method described by Adez and Cascarano (Adez, I. Z., and Cascarano, J. (1977) J. Bioenerg. Biomemb. 9, 237-253). Cytochrome c oxidase solubilized using Triton X-100 was reconstituted in variously composed phospholipid vesicles of differing dimensions, a modified cholate dialysis method being used. (Niggli, V., Siegel, E., and Carafoli, E. (1982) J. Biol. Chem. 257, 2350-2356). […]
(§4) The cytochrome c oxidase activity was determined by establishing the oxygen consumption. […] Reconstituted cytochrome c oxidase was measured with ascorbate/TPMD (10 mM/0.2 mM) in a medium containing 100 mM KCl, 0.01 M HEPES-KOH (pH 7.0) und 0.1 mM EDTA.
(§5) A protective effect by negatively charged phospholipids was also observed when increasing quantities of cardiolipin (see above, a negatively charged phospholipid) were added to vesicles containing PC/PE (see Table III). […]

[2] = target: T5, COX from Paracoccus denitrificans (Paracoccus denitrificans, UniProt P08306+P98002); assay: Reconstituted COX from Paracoccus denitrificans, sensitivity to A2E; assay type: biochemical
T5 construct: host or cells: gift from Dr. Bernd Ludwig, University of Frankfurt am Main
Experimental: as §3, §4, §5

Cyt.c = Cyt.c (Homo sapiens, UniProt P99999); assay: Binding of [3H]-A2E to cytochrome c by co-precipitation; conditions: 20 min
Experimental: as §1, §2

MCF-7 cells = assay: A2E-induced apoptosis of MCF-7 cells in culture; assay type: cell-based
Text: These advantageous properties predestine the phospholipids according to the present invention for use as a medication for treating pathological conditions of the retina, particular for treating AMD and macular degeneration.

[3] = target: T1, solubilized cytochrome c oxidase (COX); assay: Activity of solubilized cytochrome c oxidase by oxygen consumption (Clarke electrode); assay type: biochemical; conditions: read-out: IC50 (A2E concentration for 50% inhibition of COX)
[4] = target: T6, reconstituted cytochrome c oxidase (COX) (Rattus norvegicus, UniProt P00406+P05503+P05505); assay: Activity of cytochrome c oxidase reconstituted in phospholipid vesicles, oxygen consumption in presence of A2E; assay type: biochemical; conditions: phospholipid used in the vesicles
T6 construct: Cytochrome c oxidase was purified from rat liver mitochondria of female Wistar rats; from tissue; host or cells: rat liver mitochondria (female Wistar rats)
T6 sequence (P00406 whole entry, other chains not shown): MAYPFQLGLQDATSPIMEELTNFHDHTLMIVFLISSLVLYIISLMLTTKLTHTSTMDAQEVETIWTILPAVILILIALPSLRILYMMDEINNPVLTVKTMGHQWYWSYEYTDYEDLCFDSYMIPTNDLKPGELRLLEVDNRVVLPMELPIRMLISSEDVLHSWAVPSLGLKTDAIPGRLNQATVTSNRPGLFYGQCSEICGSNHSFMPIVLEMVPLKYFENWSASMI
T6 sequence (P05505 whole entry, other chains not shown): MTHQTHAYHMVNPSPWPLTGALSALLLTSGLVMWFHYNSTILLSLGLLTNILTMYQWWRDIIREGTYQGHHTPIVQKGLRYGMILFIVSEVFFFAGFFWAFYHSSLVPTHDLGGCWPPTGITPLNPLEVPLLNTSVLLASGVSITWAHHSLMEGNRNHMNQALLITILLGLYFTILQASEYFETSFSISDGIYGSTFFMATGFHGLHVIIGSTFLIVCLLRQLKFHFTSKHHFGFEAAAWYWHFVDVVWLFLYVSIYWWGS
Experimental: Cytochrome c oxidase was purified from rat liver mitochondria of female Wistar rats as described by Frei et al. (Frei, B., Winterhalter, K. H., and Richter, C. (1985) J. Biol. Chem. 260, 7394-7401). The homogenization medium contained 210 mM mannitol, 70 mM saccharose, 10 mM tris-HCl (pH 7.4), 0.1 mM EDTA, and 0.5 mg/mL BSA. […] The cytochrome c oxidase was purified according to the method described by Adez and Cascarano (Adez, I. Z., and Cascarano, J. (1977) J. Bioenerg. Biomemb. 9, 237-253). Cytochrome c oxidase solubilized using Triton X-100 was reconstituted in variously composed phospholipid vesicles of differing dimensions, a modified cholate dialysis method being used. […] 1 mL of a phospholipid suspension (10 mg/mL in 50 mM KCl, 10 mM HEPES-KOH (pH 7.0), 0.1 mM K^+-EDTA; buffer A) was solubilized in 0.2 mL of a 400 mM cholate solution. The purified cytochrome c oxidase (40 μg) was added to 0.4 mL of the cholate-phospholipid mixture. After an hour on ice, the sample was put into dialysis tubes and dialyzed in the cold against 1 L of buffer A (24 hours), three buffer replacements being performed.
The cytochrome c oxidase activity was determined by establishing the oxygen consumption. […] Reconstituted cytochrome c oxidase was measured with ascorbate/TPMD (10 mM/0.2 mM) in a medium containing 100 mM KCl, 0.01 M HEPES-KOH (pH 7.0) und 0.1 mM EDTA. […]

T2 sequence (P00406 whole entry, other chains not shown): as the sequence (P00406 whole entry, other chains not shown) above
T2 sequence (P05505 whole entry, other chains not shown): as the sequence (P05505 whole entry, other chains not shown) above
T1 sequence (P00406 whole entry, other chains not shown): as the sequence (P00406 whole entry, other chains not shown) above
T1 sequence (P05505 whole entry, other chains not shown): as the sequence (P05505 whole entry, other chains not shown) above
BSA, sequence (P02769 25-607): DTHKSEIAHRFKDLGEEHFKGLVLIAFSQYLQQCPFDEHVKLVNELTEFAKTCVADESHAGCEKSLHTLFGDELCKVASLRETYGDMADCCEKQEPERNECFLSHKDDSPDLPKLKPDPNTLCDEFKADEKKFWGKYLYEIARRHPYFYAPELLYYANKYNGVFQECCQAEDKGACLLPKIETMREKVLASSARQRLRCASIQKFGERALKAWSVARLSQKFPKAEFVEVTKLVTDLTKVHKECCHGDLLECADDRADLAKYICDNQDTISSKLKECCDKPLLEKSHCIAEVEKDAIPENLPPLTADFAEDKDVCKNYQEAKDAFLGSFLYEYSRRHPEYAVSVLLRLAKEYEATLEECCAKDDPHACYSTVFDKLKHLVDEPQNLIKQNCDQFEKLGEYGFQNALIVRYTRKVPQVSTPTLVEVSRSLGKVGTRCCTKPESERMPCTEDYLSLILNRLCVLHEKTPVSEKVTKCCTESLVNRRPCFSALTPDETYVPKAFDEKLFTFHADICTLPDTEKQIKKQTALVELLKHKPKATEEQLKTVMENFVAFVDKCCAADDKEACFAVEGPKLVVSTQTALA
Cyt.c, sequence (P99999 whole entry): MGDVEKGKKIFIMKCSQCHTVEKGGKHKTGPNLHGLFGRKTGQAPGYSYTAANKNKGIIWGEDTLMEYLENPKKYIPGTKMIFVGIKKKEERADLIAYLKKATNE
T4 sequence (P00406 whole entry, other chains not shown): as the sequence (P00406 whole entry, other chains not shown) above
T4 sequence (P05505 whole entry, other chains not shown): as the sequence (P05505 whole entry, other chains not shown) above
T5 sequence (P08306 30-281): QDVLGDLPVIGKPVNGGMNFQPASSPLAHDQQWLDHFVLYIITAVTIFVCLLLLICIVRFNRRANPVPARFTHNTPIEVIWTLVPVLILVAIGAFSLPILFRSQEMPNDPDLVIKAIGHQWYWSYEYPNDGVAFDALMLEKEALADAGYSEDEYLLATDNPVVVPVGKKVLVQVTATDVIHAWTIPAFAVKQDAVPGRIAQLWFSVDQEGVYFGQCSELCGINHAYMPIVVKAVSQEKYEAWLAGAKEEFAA
T5 sequence (P98002 whole entry): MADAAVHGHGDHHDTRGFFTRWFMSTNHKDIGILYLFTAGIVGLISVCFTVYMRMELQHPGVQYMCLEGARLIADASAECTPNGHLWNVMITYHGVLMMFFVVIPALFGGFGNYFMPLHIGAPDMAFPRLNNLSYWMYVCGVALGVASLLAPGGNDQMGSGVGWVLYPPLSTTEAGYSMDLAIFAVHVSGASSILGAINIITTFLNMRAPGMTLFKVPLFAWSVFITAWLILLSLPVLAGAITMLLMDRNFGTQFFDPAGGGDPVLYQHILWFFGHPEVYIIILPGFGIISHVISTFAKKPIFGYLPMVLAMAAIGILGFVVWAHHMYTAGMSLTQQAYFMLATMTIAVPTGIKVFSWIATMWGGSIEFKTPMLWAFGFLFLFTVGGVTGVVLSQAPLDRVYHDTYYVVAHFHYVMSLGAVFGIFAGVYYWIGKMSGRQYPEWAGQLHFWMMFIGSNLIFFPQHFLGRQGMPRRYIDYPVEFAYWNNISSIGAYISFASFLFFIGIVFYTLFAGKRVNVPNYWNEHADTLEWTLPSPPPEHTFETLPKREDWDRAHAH

## c1ccc([P+](c2ccccc2)(c2ccccc2)c2ccccc2)cc1 [TPP^+, tetraphenyl phosphonium ion]
[1]; solubilized COX 2 μg/mL
  IC50 (μM) in relation to COX: No inhibition

## C[n+]1ccc(-c2ccccc2)cc1 [MPP^+, methylphenyl pyridinium ion]
[1]; solubilized COX 2 μg/mL
  IC50 (μM) in relation to COX: No inhibition

## CC1=C(/C=C/C(C)=C/C=C/C(C)=C/C=O)C(C)(C)CCC1 [Retinal]
[1]; solubilized COX 2 μg/mL
  IC50: 200 µM

## CC1=C(/C=C/C(C)=C/C=C/C(C)=C/c2cc(/C=C/C=C(C)/C=C/C3=C(C)CCCC3(C)C)cc[n+]2CCO)C(C)(C)CCC1 [A2E, N-retinyl-N-retinylidene ethanolamine]
[1]; solubilized COX 2 μg/mL, A2E always 20 μM, CL 200 μg/mL, RR 10 μM, La3+ 200 μM where added
  % COX inhibition: 60%
[1]; solubilized COX 2 μg/mL
  IC50: 7 µM
COX; COX + CL + Cyt.c, darkness
  Molecules A2E/molecules protein: 0.7 +/− 0.9 (n = 3)
COX; COX + CL + Cyt.c, exposure to light
  Molecules A2E/molecules protein: 3.8 +/− 2.3 (n = 4)
COX; COX + CL, exposure to light
  Molecules A2E/molecules protein: 2.7 +/− 3.6 (n = 4)
BSA; darkness
  Molecules A2E/molecules protein: 1.6 +/− 0.5 (n = 3)
BSA; exposure to light
  Molecules A2E/molecules protein: 1.6 +/− 0.5 (n = 3)
Myoglobin; darkness
  Molecules A2E/molecules protein: 0.0 (n = 2)
Myoglobin; exposure to light
  Molecules A2E/molecules protein: 0.0 (n = 2)
COX from rat hearts
  Sensitivity of enzyme to A2E: sensitive
[2]
  Sensitivity of enzyme to A2E: sensitive
Cyt.c; darkness
  Molecules A2E/molecules protein: 0.0 (n = 3)
Cyt.c; exposure to light
  Molecules A2E/molecules protein: 0.0 (n = 3)
MCF-7 cells; 60 μM A2E, 5 days
  Cells died off: 99%
MCF-7 cells; A2E 10, 30, 60 μM, 3 and/or 5 days
  Induction of apoptosis: led to the cells becoming apoptotic
[3]; solubilized COX 1 μg/mL
  IC50: 3 µM
[3]; solubilized COX 4 μg/mL
  IC50: 20 µM

## phosphatidylinositol [PI]
[4]
  Protection of reconstituted COX from inhibition by A2E: pronounced protective effect

## 1,3 diphosphatidylglycerol [CL]
[1]; CL oxidised with peroxynitrite
  Protective effect on COX against A2E after (pre)treatment with peroxynitrite: loss of the protective properties
COX; co-precipitation
  Prevention of A2E binding to COX: almost completely prevented
MCF-7 cells; 60 μM A2E + CL 500 μg/mL, 5 days
  Cells survived: 95%
MCF-7 cells; CL 500 μg/mL
  Protection from A2E-induced apoptosis: significant protective effect

## CCCCCCCCCCCCCCCCCCN [Stearylamine]
[1]; solubilized COX 2 μg/mL
  IC50 (μM) in relation to COX: No inhibition

## Cc1cc(N)c2ccccc2[n+]1CCCCCCCCCC[n+]1c(C)cc(N)c2ccccc21 [Dequalinium]
[1]; solubilized COX 2 μg/mL
  IC50: 40 µM
